The numbers were not newly measured in patent publication US11471437B2, “Compositions and methods for treating cannabinoid hyperemesis syndrome with a cannabinoid receptor antagonist” (Opiant Pharmaceuticals, Inc., priority 2019, dated 2022), which cites them from elsewhere.

For data set [1] the following is noted: cited from earlier work.
For data set [2], the target named is T1, CB1 receptor (Homo sapiens, UniProt P21554). Conditions: cited from earlier work.
Data set [3] has as its target T1, CB1 receptor. Also noted: host or cells: human volunteers (in vivo). Conditions: oral administration, normal volunteers; cited from earlier work.
The conditions of data set [4]: oral formulation for obesity and smoking cessation; cited from earlier work.

T1 sequence (P21554 whole entry): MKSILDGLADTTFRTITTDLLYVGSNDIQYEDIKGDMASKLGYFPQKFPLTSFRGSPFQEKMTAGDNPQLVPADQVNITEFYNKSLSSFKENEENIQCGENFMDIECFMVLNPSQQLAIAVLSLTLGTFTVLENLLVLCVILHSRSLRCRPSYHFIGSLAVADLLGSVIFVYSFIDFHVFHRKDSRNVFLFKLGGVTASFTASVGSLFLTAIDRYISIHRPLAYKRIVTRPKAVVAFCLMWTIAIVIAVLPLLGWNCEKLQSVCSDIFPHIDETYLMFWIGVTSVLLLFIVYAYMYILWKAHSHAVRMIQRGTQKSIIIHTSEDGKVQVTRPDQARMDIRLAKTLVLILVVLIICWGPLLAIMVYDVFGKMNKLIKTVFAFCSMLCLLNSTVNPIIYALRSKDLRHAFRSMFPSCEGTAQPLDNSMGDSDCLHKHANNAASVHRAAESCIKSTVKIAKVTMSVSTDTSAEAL

`CS(=O)(=O)N(c1cc(F)cc(F)c1)C1CN(C(c2ccc(Cl)cc2)c2ccc(Cl)cc2)C1` (racemic) [drinabant, (±)-N-{1-[bis(4-chlorophenyl)methyl]-3-azetidinyl}-N-(3,5-difluorophenyl)methanesulfonamide]: the “log P” value in data set [1] is listed as “high”. Moreover, at CB1 receptor [2], the “Potency and selectivity for CB1” value was “potent and selective for CB1”. Also, the “Prevention (block) of pharmacological effects of smoked or inhaled THC” value on CB1 receptor [3] is given as “can prevent (that is, block) some of the pharmacological effects of smoked or inhaled THC”. Take `Cc1c(C(=O)NN2CCCCC2)nn(-c2ccc(Cl)cc2Cl)c1-c1ccc(Cl)cc1` [Rimonabant, 5-(4-chlorophenyl)-1-(2,4-dichloro-phenyl)-4-methyl-N-(piperidin-1-yl)-1H-pyrazole-3-carboxamide]: the Side effects entry in data set [4] is “concerning side effects including psychiatric effects such as depression and mood alterations”. With `CCc1c(C(=O)NN2CCCCC2)nn(-c2ccc(Cl)cc2Cl)c1-c1ccc(Br)cc1` [surinabant], on CB1 receptor [3], the “Prevention (block) of pharmacological effects of smoked or inhaled THC” value is recorded as “can prevent (that is, block) some of the pharmacological effects of smoked or inhaled THC”.
